The values below come from patent US20220364069A1, “METHOD FOR THE PRODUCTION OF AN ENZYMATIC COMPOSITION COMPRISING A RECOMBINANT ENDOPEPTIDASE” (NEMYSIS LIMITED, priority 2019, published 2022).

Data set [1] deals with Staphylococcus aureus ATCC6538. As to the kind of experiment: Broth microdilution antimicrobial assay, S. aureus. The following applies: S. aureus ATCC6538, 20 h, 35° C.; for MIC: Staphylococcus aureus, read-out: MIC (Minimal Inhibitory Concentration). Type of data set: cell-based. The source says:
(§1) As known, S. lividans TK24 could potentially produce actinorhodin (ACT), undecylprodigiosin (UDP), and calcium-dependent antibiotic (CDA), especially when grown under fermentation conditions. Broth microdilution assay, standardized by the Clinical and Laboratory Standards Institute (CLSI) was then used to evaluate antibiotic presence in samples deriving from enzyme preparations obtained by the method of the invention. Antimicrobial activity has been tested against test microorganisms (test-mo), known to not show any antibiotic resistance: Staphylococcus aureus ATCC6538 (representative of Gram+); Escherichia coli L47 (Lepetit collection; representative of Gram-); Candida albicans L145 (Lepetit collection; representative of Yeast).
(§2) A two-fold serial dilution of the samples to be tested was performed in sterile 96-well microplates, then inoculated with the test-mo in their respective medium (100 μl/well final volume); each determination was carried out in triplicate. The inoculated microplates were then incubated for 18, 20 and 24 h for E. coli, S. aureus and C. albicans, respectively, at 35° C. Antimicrobial activity of samples of unknown “antimicrobial” concentration was measured as endpoint, that is the highest dilution that inhibits the test strain growth; it was determined by visual examination of the microplates with the aid of a magnifying mirror.
A general note: Dilution methods test growth across graded concentrations, often in twofold steps.

For another data set, the system named is Escherichia coli L47. The experiment in a line: Broth microdilution antimicrobial assay, E. coli. Type of data set: cell-based. The following applies: E. coli L47, 18 h, 35° C.; for MIC: Escherichia coli, read-out: MIC (Minimal Inhibitory Concentration).
Excerpt: as §1, §2

The subject of the next data set is Candida albicans L145. The experiment in a line: Broth microdilution antimicrobial assay, C. albicans. Type of data set: cell-based. Conditions: for MIC: Candida albicans, L145, read-out: MIC (Minimal Inhibitory Concentration).
Excerpt: as §1, §2

The nature of data set [2]: Activity of culture supernatant toward sucAAPF-AMC at various pH. Type of data set: biochemical. As for the experimental part: (§3) FIG. 1. Activity of Actinoallomurus A8 culture supernatant fraction containing the native E40. A: relative activity toward the substrate sucAlaAlaProPhe-AMC (sucAAPF-AMC) at various pH values (the optimum —100% activity— is at pH 5). B: Gliadin digestion after 2 hours of incubation at 37° C., pH 3. Gel stained with Coomassie R250 brilliant blue; Lane 1: gliadin alone, lane 2: gliadin+E40-containing supernatant fraction.
FIG. 3. Recombinant E40 (SEQ ID NO: 2) obtained by S. lividans TK24/p1J86/e40 submerged fermentation, at flask scale (panels A-C) or in a 15 L bioreactor, followed by purification (panels D-E). A: activity toward the substrate sucAAPF-AMC at pH 5 of supernatant samples taken at different fermentation times (♦72, ▴96, ●168, ▪192 fermentation hours) from the producing S. lividans TK24/p1J86/E40 (E40, continuous line) and absence of activity of supernatant samples taken from the pIJ86-empty control strain (ctr, dashed lines). Activity is shown as relative fluorescent units (rfu, Y axis) produced in time (X axis). […] D: profile of an enzyme preparation comprising recombinant E40 purified from the 15 L fermentation; lane 1: final enzyme preparation comprising recombinant E40 stained with Coomassie (the arrow indicates recombinant E40), lane 2: zymography as in C, lane 3: band of gelatin hydrolysis after 2 hours of digestion at 37° C. and pH 5, visualized after Coomassie staining of the gelatin substrate. E: relative activity (%) of recombinant E40 in the purified enzyme preparation at different pH values (from 2 to 8), evaluated with the substrate suc-Ala-Ala-Pro-Phe-pNA.
As well as native E40, recombinant E40 was active in the pH range 3-6, with an optimum at pH 5 (FIG. 3, panel B).

For the next data set, the system named is gliadin. As to the kind of experiment: Gliadin digestion by native E40 fraction (SDS-PAGE). Conditions: 2 hours, 37° C., pH 3. Type of data set: biochemical. As for the experimental part:
as §3
Native E40 of sequence SEQ ID NO: 3 was purified from the supernatant fraction of an Actinoallomurus A8 culture isolated from soil (native E40) as described in WO2013083338.

In brackets after ≈: the same amount, converted by molar mass. Like-named read-outs stand apart in the source and are kept apart here.

Take `CCCCCCCCCC(=O)N[C@@H](Cc1c[nH]c2ccccc12)C(=O)N[C@H](CC(N)=O)C(=O)N[C@@H](CC(=O)O)C(=O)N[C@@H]1C(=O)NCC(=O)N[C@@H](CCCN)C(=O)N[C@@H](CC(=O)O)C(=O)N[C@H](C)C(=O)N[C@@H](CC(=O)O)C(=O)NCC(=O)N[C@H](CO)C(=O)N[C@@H]([C@H](C)CC(=O)O)C(=O)N[C@@H](CC(=O)c2ccccc2N)C(=O)O[C@@H]1C` [Daptomycin, daptomycin]: the MIC is 0.5 µg/mL (≈ 0.309 µM) in data set [1]; greater than 128 µg/mL in the data set on Escherichia coli L47; greater than 128 µg/mL in the data set on Candida albicans L145 (C. albicans L14, 24 h, 35° C.).

Take `C[C@@H]1[C@H](O)[C@@H](C)/C=C/C=C/C=C/C=C/C=C/C=C/C=C/[C@H](O[C@@H]2O[C@H](C)[C@@H](O)[C@H](N)[C@@H]2O)C[C@@H]2O[C@](O)(C[C@@H](O)C[C@@H](O)[C@H](O)CC[C@@H](O)C[C@@H](O)CC(=O)O[C@H]1C)C[C@H](O)[C@H]2C(=O)O` [Amphotericin B, amphotericin B]: the “MIC (Minimal Inhibitory Concentration)” value is greater than 128 µg/mL in data set [1]; greater than 128 µg/mL with Escherichia coli L47; 0.5 µg/mL (≈ 0.541 µM) with Candida albicans L145 (C. albicans L14, 24 h, 35° C.).

For the molecule `c1c[nH]cn1` [Imidazole, imidazole], the MIC in the data set with Candida albicans L145 (C. albicans L14) came out at 3.9 mM.

Consider `CN[C@@H]1[C@@H](O[C@H]2O[C@H](CO)[C@@H](N)[C@H](O)[C@H]2O)OC2C[C@@H](N)[C@@H](O[C@H]3[C@H](O)[C@@H](O)[C@H](N)C[C@@H]3N)OC2[C@@H]1O` (stereo partly shown) [Apramycin], for which the MIC in data set [1] is 8 µg/mL (≈ 14.8 µM); with Escherichia coli L47, 8 µg/mL (≈ 14.8 µM); with Candida albicans L145 (C. albicans L14, 24 h, 35° C.), greater than 128 µg/mL.

B1: Native E40: E40 of SEQ ID NO: 3 purified from supernatant fraction of an Actinoallomurus A8 culture as in WO2013083338 (protein)
chain: MSRRVTGTILGGLILAMVPFLSTAANAAPQAAPASVSHPFHHSCATVKPGRASCNALVRSDIAQSAATLAHQAAAPSGLSPANLQSAYKLPSSTAGSGQTVAIVDAYDAPTAEADLNVYRSQFGLGACTTANGCFKKVDQNGGTSYPRKDGGWAQEISLDLDMVSAVCPNCKIVLVEAKTNSFANLGTAENTAASLANVISNSYGGSDASDASYGSYYNHPGKAITVSSGDAGYGVEYPASSHYVTAVGGTSLRTASTSRGWSETAWSGAGSGCSAYNTALSGQSGLTGCSRRAVADVSAVADPATGVAVYDSTAYQGQSGWMVFGGTSVAAPIIGGVYGLAANAASIDNNYPYAHTSSLFDVTSGSNGTCTTTKWCTAGTGWDGPTGLGTPNGTGAF
modifications: Actinoallomurus
On to B1, for which the “pH range of marked glutenase activity” value in data set [2] (native E40) is given as 3-6. The “pH optimum of relative activity” value in data set [2] (native E40-containing Actinoallomurus A8 supernatant fraction, sucAAPF-AMC) amounted to 5. Moreover, in the data set on gliadin, the gliadin digestion result was “completely digested”.
